Patent US5891877A, “Pharmaceutical compounds” (Xenova Limited, priority 1996, dated 1999)
pIC50: −log10 of the molar value. Structures can show the parent of a compound that is named as a salt.

Molecular target: PAI-1 (Homo sapiens, UniProt P05121)
Assay: PAI-1 inhibition in the S2251 chromogenic substrate assay (PAI functional assay)
Type: biochemical
Conditions: for INHIBITION OF PAI-1 (degree of inhibition): Table 1, first part, unit assumed; for inhibition at 20 µM / inhibition at 100 µM / inhibition at 50 µM: Table 1, second part, read-out: INHIBITION OF PAI-1 (degree of inhibition)
Method: In this assay, a compound is incubated with PAI-1 prior to addition to the tPA assay system. Inhibition of PAI-1 results in the production of plasmin from plasminogen. […]
Compounds of formula (A) were tested in a PAI chromogenic substrate assay. […] In turn, the plasmin cleaved the chromogenic substrate S2251 (Kabi-Vitrum) producing pNA (p-nitroaniline) which was detected scectrophotometrically at 405 nm.

PAI-1, sequence (P05121 24-402): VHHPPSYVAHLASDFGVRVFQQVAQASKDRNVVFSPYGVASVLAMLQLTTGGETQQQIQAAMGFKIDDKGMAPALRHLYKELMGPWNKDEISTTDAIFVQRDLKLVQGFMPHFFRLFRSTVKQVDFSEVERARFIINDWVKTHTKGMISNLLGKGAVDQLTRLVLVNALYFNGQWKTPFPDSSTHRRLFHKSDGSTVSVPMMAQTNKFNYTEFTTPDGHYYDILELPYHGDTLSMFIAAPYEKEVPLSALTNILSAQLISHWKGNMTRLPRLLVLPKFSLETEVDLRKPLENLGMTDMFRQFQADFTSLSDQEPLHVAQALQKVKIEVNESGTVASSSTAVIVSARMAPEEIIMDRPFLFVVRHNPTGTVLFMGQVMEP

SMILES	INHIBITION OF PAI-1 (degree of inhibition) (6.25 μm) [%]	INHIBITION OF PAI-1 (degree of inhibition) (12.5 μm) [%]	INHIBITION OF PAI-1 (degree of inhibition) (25 μm) [%]	INHIBITION OF PAI-1 (degree of inhibition) (50 μm) [%]	INHIBITION OF PAI-1 (degree of inhibition) (100 μm) [%]	pIC50 (PAI-1, S2251 assay, Table 2)	inhibition at 20 µM [%]	inhibition at 100 µM [%]	inhibition at 50 µM [%]
O=c1[nH]/c(=C\c2ccc(OCCn3ccnc3)cc2)c(=O)[nH]/c1=C\c1ccccc1 [Compound 1910, (3Z,6Z)-3-Benzylidene-6-(4-(2-imidazolylethoxy)benzylidene)-2,5-piperazinedione]	63	61	50	36	27	5.00 to 5.30			
CN(C)c1ccc(C=C/C=c2\[nH]c(=O)/c(=C/c3ccccc3)[nH]c2=O)cc1 [Compound 1921, (3Z,6Z)-3-Benzylidene-6-(4-dimethylaminocinnamylidene)-2,5-piperazinedione]	16	14	25	43	65				
O=c1[nH]/c(=C\c2ccccc2)c(=O)[nH]/c1=C\C=C(c1ccccc1)c1ccccc1 [Compound 1922, (3Z,6Z)-3-Benzylidene-6-(γ-phenylcinnamylidene)-2,5-piperazinedione]	14	13	26	11	13				
O=c1[nH]/c(=C\c2ccccc2)c(=O)[nH]/c1=C\C=Cc1ccc([N+](=O)[O-])cc1 [Compound 1923]	13	12	20	31	38				
O=c1[nH]/c(=C\c2c[nH]cn2)c(=O)[nH]/c1=C\c1ccccc1 [Compound 1926, (3Z,6Z)-3-Benzylidene-6-(4-imidazolyl)methylene-2,5-piperazinedione]	10	6	12	35	36				
Cc1[nH]cnc1/C=c1\[nH]c(=O)/c(=C/c2ccccc2)[nH]c1=O [Compound 1927, (3Z,6Z)-3-Benzylidene-6-(4-(5-methylimidazolyl))methylene-2,5-piperazinedione]	14	22	20	39	33				
O=c1[nH]/c(=C\c2ccc(Cn3ccnc3)cc2)c(=O)[nH]/c1=C\c1ccccc1 [Compound 1929, (3Z,6Z)-3-Benzylidene-6-(4-(1-imidazolylmethyl)benzylidene)-2,5-piperazinedione]	16	48	59	45	27				
O=c1[nH]/c(=C\c2ccc(-n3ccnc3)cc2)c(=O)[nH]/c1=C\c1ccccc1 [Compound 1930]	30	38	79	61	54				
COc1cc(C=C/C=c2\[nH]c(=O)/c(=C/c3ccccc3)[nH]c2=O)ccc1OCCN(C)C [Compound 1950, (3Z,6Z)-3-Benzylidene-6-(4-(2-dimethylaminoethoxy)-3-methoxycinnamylidene)-2,5-piperazinedione]	1	2	2	3	19				
COc1cc(/C=c2\[nH]c(=O)/c(=C/c3ccccc3)[nH]c2=O)ccc1OCCN(C)C [Compound 1959, (3Z,6Z)-3,Benzylidene-6-(4-(2-dimethylaminoethoxy)-3-methoxybenzylidene)-2,5-piperazinedione hydrochloride]	1	2	2	1	5				
CN(C)CCCOc1ccc(/C=c2\[nH]c(=O)/c(=C/c3ccc(Cn4ccnc4)cc3)[nH]c2=O)cc1 [Compound 1975, (3Z,6Z)-3-(4-(3-Dimethylaminopropoxy)benzylidene)-6-(4-(1-imidazolylmethyl)benzylidene)-2,5-piperazinedione]	0	0	0	0	7				
CN(C)CCCOc1ccc(/C=c2\[nH]c(=O)/c(=C/c3ccc(-n4ccnc4)cc3)[nH]c2=O)cc1 [Compound 1976]	0	0	0	0	3				
CN(C)CCN(C)Cc1ccc(/C=c2\[nH]c(=O)/c(=C/c3ccccc3)[nH]c2=O)cc1 [Compound 1982, (3Z,6Z)-3-Benzylidene-6-(4-(N-methyl-N-(2-dimethylaminoethyl)aminomethylbenzylidene-2,5-piperazinedione hydrochloride]	1	6	28	49	48				
CN1CCC(N(C)Cc2ccc(/C=c3\[nH]c(=O)/c(=C/c4ccccc4)[nH]c3=O)cc2)CC1 [Compound 1983]	0	0	0	14	34				
CN(C)CCCOc1ccc(/C=c2\[nH]c(=O)/c(=C/c3ccc(CN(C)C)cc3)[nH]c2=O)cc1 [Compound 5023]							1		
CN(C)CCCOc1ccc(/C=c2\[nH]c(=O)/c(=C/c3ccc(Cn4ccnc4)cc3)[nH]c2=O)cc1 [Compound 5026, (3Z,6Z)-3-(4-(3-Dimethylaminopropoxy)benzylidene)-6-(4-(1-imidazolyl)methylbenzylidene)-2,5-piperazinedione]							10	34	
CN(C)CCCOc1ccc(/C=c2\[nH]c(=O)/c(=C/c3ccncc3)[nH]c2=O)cc1 [Compound 5027]							8	12	8
CN(C)CCCOc1ccc(/C=c2\[nH]c(=O)/c(=C/c3cccnc3)[nH]c2=O)cc1 [Compound 5028, (3Z,6Z)-6-(4-(3-Dimethylaminopropoxy)benzylidene)-3-(3-pyridylmethylene)-2,5-piperazinedione]							4	11	4
CN(C)CCCOc1ccc(/C=c2\[nH]c(=O)/c(=C/c3ccc(-n4ccnc4)cc3)[nH]c2=O)cc1 [Compound 5030, (3Z,6Z)-3-(4-(3-Dimethylaminopropoxy)benzylidene)-6-(4-(1-imidazolyl)benzylidene)-2,5-piperazinedione]							6	20	7
CN(C)CC(O)COc1ccc(/C=c2\[nH]c(=O)/c(=C/c3ccccc3)[nH]c2=O)cc1 (centres unmarked) [Compound 5032, (3Z,6Z)-6-Benzylidene-3-(4-(3-dimethylamino-2-hydroxypropoxy)benzylidene)-2,5-piperazinedione]							63	65	62
O=c1[nH]/c(=C\c2ccc(OCC(O)CN3CCOCC3)cc2)c(=O)[nH]/c1=C\c1ccccc1 (centres unmarked) [Compound 5040, (3Z,6Z)-6-Benzylidene-3-(4-(2-hydroxy-3-morpholinopropoxy)benzylidene)-2,5-piperazinedione]							0	0	1
CN(C)CCCOc1ccc(/C=c2\[nH]c(=O)/c(=C/c3ccco3)[nH]c2=O)cc1 [Compound 5041, (3Z,6Z)-6-(4-(3-Dimethylaminopropoxy)benzylidene)-3-furfurylidene-2,5-piperazinedione]							0	1	0
CN(C)CCCOc1ccc(/C=c2\[nH]c(=O)/c(=C/c3ccsc3)[nH]c2=O)cc1 [Compound 5042, (3Z,6Z)-6-(4-(3-Dimethylaminopropoxy)benzylidene)-3-(3-Thenylidene)-2,5-piperazinedione]							42	77	64
O=c1[nH]/c(=C\c2ccc(OCC(O)CN3CCN(CCO)CC3)cc2)c(=O)[nH]/c1=C\c1ccccc1 (centres unmarked) [Compound 5043, (3Z,6Z)-6-Benzylidene-3-(4-(2-hydroxy-3-(4-(2-hydroxyethyl)-1-piperazinyl)propoxy)benzylidene)-2,5-piperazinedione]							1	21	15
CC(=O)Nc1ccc(/C=c2\[nH]c(=O)/c(=C/c3ccc(OCCCN(C)C)cc3)[nH]c2=O)cc1 [Compound 5048]							11	55	19
CN(C)CCCOc1ccc(/C=c2\[nH]c(=O)/c(=C/c3ccoc3)[nH]c2=O)cc1 [Compound 5052, (3Z,6Z)-6-(4-(3-Dimethylaminopropoxy)benzylidene)-3-(3-Furylmethylene)-2,5-piperazinedione]							86	77	76
